The source made the active and inactive calls. Rule as the data show it, for most assays here: actives have a measured Kd and inactives only a lower limit. Some results are limits rather than exact numbers.

The values below come from ChEMBL document CHEMBL3991601, “The target landscape of clinical kinase drugs” (Science, 2017).

In assay [1] the target is Mitogen-activated protein kinase kinase kinase kinase 4 (Homo sapiens, UniProt O95819).
Assay [2] concerns the target Serine/threonine-protein kinase PAK 2 (Homo sapiens, UniProt Q13177).
The target of assay [3] is T1, Uncharacterized protein FLJ45252 (Homo sapiens, UniProt Q6ZSR9).
T1 sequence (Q6ZSR9 whole entry): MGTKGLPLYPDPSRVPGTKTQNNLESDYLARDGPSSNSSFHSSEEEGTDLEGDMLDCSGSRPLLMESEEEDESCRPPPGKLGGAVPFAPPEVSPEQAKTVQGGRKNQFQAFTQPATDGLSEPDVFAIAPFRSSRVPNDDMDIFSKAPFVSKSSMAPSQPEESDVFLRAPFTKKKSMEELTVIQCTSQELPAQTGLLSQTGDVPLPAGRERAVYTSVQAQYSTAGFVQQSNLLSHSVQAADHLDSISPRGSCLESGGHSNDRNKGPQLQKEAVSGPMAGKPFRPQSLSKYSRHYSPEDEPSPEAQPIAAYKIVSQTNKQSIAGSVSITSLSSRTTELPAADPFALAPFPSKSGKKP
The conditions noted are these: read-out: Kd apparent; k-562, colo 205, sk-n-be(2) and mv-4-11.

Assay [4] concerns the target T2, Serine/threonine-protein kinase LATS1 (Homo sapiens, UniProt O95835).
T2 sequence (O95835 whole entry): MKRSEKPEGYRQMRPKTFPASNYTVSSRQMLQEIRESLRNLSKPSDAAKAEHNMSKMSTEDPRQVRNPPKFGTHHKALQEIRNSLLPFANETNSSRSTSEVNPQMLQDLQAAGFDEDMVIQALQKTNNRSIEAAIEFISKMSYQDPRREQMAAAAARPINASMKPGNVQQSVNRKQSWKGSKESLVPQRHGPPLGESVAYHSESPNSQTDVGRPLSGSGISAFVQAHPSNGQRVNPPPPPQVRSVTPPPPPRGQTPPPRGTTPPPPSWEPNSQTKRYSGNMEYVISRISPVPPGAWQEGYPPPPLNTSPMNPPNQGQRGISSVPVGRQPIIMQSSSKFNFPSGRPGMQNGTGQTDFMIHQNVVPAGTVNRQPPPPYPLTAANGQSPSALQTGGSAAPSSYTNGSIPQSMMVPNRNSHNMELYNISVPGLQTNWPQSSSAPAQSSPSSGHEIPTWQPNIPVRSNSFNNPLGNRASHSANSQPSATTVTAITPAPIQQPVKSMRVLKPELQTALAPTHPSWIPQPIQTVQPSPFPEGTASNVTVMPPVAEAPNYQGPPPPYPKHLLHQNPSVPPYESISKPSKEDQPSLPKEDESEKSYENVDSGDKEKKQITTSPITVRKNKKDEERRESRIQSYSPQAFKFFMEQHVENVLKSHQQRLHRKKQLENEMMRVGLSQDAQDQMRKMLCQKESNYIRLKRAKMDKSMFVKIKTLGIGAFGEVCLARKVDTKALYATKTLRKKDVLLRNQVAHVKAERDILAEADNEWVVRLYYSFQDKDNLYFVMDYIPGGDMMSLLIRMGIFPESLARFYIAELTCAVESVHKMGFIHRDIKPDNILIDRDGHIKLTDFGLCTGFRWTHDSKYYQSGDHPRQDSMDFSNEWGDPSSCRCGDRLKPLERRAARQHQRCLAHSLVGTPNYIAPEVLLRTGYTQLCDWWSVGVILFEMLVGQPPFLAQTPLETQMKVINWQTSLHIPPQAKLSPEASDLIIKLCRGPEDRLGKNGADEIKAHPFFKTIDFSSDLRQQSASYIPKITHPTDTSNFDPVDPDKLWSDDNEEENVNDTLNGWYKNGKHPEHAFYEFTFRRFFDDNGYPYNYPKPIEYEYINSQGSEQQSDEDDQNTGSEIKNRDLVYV

The target of assay [5] is Macrophage-stimulating protein receptor (Homo sapiens, UniProt Q04912).
Assay [6] deals with Chromodomain-helicase-DNA-binding protein 4 (Homo sapiens, UniProt Q14839).
Another assay has as its target T3, Ephrin type-B receptor 3 (Homo sapiens, UniProt P54753).
T3 sequence (P54753 whole entry): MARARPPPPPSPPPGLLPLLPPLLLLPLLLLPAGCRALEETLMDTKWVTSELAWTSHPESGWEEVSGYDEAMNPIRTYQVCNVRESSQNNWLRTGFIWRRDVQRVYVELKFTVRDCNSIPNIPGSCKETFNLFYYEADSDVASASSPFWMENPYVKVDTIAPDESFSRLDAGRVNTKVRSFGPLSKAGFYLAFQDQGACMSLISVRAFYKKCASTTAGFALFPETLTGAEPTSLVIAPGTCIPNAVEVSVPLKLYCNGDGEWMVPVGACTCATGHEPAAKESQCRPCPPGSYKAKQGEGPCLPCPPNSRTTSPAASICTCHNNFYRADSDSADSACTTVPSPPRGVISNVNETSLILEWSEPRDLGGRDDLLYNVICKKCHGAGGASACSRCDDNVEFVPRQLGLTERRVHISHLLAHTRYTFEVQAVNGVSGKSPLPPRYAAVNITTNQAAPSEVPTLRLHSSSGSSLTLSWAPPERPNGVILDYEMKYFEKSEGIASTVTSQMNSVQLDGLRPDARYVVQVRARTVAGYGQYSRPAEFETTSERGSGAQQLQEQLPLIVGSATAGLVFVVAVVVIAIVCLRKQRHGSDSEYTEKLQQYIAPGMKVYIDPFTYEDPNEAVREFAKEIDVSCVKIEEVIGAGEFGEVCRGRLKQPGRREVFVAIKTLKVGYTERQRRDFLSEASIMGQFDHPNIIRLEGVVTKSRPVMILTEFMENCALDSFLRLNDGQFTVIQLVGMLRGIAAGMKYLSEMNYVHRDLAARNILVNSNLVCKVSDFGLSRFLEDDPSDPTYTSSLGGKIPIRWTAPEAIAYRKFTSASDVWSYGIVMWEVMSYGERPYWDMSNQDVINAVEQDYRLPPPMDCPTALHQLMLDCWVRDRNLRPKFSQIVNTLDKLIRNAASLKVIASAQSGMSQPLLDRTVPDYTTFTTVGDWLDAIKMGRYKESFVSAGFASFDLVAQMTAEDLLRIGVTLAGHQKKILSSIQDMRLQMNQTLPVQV

For assay [7], the target named is Serine/threonine-protein kinase/endoribonuclease IRE1 (Homo sapiens, UniProt O75460).
Also: in the data inactive means no Kd found up to 30 µM.

Serine/threonine-protein kinase/endoribonuclease IRE1, sequence (O75460 whole entry): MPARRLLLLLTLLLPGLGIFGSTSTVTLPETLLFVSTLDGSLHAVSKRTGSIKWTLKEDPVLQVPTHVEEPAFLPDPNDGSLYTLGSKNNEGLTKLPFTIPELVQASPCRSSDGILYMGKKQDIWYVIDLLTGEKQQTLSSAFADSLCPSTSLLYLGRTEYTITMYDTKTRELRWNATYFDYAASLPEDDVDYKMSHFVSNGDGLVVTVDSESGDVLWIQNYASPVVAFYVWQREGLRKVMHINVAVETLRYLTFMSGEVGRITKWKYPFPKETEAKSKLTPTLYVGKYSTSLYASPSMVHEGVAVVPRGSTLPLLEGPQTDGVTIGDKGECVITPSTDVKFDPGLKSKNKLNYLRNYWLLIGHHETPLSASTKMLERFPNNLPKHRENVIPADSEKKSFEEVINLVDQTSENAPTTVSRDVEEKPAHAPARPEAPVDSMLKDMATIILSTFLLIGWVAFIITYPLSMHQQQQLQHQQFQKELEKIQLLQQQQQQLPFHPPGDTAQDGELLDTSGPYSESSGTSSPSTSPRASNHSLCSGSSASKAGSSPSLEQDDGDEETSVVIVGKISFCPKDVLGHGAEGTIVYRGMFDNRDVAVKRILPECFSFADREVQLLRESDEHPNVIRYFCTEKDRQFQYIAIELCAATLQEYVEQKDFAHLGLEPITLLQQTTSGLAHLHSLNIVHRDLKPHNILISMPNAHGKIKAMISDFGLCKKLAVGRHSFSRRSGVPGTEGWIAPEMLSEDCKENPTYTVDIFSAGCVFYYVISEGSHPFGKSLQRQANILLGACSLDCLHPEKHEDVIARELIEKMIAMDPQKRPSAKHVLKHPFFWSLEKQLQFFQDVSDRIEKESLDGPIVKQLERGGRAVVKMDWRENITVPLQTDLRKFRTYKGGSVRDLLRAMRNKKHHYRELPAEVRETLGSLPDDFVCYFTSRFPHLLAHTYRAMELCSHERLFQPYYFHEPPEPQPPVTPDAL
Serine/threonine-protein kinase PAK 2, sequence (Q13177 whole entry): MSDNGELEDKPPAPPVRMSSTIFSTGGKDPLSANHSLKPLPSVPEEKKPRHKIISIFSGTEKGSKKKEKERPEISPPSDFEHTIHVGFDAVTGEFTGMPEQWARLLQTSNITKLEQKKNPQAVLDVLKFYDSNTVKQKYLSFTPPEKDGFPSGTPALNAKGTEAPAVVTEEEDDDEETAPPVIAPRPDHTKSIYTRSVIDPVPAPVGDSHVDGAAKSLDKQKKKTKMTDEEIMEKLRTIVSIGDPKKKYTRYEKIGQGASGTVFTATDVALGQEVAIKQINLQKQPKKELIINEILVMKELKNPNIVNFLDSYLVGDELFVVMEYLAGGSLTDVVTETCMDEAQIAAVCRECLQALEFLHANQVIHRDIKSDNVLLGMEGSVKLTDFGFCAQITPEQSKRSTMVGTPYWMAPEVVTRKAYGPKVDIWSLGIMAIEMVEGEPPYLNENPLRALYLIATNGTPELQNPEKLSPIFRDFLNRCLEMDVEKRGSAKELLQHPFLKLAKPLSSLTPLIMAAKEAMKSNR
Mitogen-activated protein kinase kinase kinase kinase 4, sequence (O95819 whole entry): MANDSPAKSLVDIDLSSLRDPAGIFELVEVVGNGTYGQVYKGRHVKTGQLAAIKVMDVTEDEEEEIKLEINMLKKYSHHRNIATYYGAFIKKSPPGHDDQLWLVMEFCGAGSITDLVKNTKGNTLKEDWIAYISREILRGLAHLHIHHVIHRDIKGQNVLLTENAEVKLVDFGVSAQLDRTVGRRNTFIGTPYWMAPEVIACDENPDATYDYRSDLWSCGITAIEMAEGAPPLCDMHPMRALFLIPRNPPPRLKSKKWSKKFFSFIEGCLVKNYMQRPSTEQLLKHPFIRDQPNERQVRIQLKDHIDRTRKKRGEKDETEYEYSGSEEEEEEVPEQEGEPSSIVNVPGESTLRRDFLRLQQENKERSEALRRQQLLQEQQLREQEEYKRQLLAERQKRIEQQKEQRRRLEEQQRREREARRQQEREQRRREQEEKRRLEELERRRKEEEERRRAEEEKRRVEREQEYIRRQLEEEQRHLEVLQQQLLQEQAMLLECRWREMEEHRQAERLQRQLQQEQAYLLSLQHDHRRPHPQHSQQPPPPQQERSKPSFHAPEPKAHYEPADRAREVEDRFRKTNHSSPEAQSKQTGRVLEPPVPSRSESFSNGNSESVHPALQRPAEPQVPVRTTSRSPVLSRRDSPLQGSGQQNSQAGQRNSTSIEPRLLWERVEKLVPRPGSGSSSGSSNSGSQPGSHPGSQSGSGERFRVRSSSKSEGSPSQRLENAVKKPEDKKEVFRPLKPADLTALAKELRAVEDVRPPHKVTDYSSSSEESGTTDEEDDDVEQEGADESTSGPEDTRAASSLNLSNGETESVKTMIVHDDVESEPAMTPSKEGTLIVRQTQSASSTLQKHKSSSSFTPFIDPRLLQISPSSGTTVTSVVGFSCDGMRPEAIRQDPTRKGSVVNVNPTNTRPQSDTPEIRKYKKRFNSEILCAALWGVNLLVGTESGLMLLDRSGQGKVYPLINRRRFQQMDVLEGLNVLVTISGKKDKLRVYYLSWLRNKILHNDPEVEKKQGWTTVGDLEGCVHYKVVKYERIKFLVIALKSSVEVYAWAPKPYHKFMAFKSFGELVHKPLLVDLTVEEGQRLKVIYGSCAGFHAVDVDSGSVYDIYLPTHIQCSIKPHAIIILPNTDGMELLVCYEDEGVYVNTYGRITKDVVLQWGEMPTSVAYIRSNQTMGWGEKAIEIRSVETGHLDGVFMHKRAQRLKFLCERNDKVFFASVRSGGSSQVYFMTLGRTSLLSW
Chromodomain-helicase-DNA-binding protein 4, sequence (Q14839 whole entry): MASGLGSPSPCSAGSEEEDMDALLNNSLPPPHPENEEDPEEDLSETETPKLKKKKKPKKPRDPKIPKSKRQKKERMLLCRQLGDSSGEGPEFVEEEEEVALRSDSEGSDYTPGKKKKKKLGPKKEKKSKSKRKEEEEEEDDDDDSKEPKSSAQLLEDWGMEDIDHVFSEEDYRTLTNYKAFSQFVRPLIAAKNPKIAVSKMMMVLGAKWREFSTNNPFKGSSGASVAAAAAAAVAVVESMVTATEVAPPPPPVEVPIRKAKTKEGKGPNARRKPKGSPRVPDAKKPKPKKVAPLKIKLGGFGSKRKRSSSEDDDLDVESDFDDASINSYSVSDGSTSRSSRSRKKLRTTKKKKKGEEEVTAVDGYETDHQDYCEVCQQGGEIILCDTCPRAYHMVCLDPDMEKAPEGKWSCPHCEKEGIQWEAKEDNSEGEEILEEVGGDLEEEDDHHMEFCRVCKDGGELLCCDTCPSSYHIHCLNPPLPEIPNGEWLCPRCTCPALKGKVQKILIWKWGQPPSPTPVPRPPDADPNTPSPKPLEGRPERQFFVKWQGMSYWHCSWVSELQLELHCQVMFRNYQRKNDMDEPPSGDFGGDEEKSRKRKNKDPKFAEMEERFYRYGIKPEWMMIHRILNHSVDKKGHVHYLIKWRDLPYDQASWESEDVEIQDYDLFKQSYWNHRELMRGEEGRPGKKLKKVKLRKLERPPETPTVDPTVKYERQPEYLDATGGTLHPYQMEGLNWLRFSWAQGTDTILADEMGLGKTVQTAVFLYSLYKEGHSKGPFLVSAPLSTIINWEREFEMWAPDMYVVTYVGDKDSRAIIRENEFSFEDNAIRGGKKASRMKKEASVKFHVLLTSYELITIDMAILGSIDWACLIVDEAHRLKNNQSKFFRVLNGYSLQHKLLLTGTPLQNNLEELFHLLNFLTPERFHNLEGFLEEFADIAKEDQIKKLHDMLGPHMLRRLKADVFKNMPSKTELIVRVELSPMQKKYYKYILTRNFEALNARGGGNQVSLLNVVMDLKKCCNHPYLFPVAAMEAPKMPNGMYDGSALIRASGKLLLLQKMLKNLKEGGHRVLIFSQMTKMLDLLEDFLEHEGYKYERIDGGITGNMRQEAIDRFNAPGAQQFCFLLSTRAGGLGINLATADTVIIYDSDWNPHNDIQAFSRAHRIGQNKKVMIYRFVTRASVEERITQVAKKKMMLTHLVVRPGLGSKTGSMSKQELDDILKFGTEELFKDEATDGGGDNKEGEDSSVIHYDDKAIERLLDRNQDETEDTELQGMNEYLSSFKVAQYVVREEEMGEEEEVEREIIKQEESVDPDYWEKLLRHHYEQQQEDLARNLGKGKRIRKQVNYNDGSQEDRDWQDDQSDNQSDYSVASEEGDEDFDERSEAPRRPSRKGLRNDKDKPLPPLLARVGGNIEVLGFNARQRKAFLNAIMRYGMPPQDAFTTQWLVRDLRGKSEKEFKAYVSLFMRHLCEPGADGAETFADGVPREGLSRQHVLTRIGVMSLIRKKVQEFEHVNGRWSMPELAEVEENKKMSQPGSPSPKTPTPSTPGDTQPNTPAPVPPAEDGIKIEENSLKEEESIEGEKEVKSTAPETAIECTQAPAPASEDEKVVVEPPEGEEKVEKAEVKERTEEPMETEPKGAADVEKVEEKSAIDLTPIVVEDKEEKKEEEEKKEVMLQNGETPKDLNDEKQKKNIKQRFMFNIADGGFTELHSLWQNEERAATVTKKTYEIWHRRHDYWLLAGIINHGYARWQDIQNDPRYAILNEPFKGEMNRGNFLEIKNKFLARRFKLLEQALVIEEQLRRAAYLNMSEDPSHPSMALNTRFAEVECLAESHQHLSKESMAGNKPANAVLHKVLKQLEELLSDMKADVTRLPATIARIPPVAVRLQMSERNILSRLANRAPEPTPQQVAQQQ

Turning to `COc1cc2nccc(Oc3ccc(NC(=O)Nc4cc(C)on4)c(Cl)c3)c2cc1OC` [TIVOZANIB], the Kd in assay [1], in assay [2], in assay [3], in assay [4], in assay [5] and in assay [6] was > 30 µM (inactive) throughout. In addition, the Kd on Ephrin type-B receptor 3 was 5.43 µM (active); in assay [7] it was > 30 µM (inactive).

`CCCS(=O)(=O)Nc1ccc(F)c(C(=O)c2c[nH]c3ncc(-c4ccc(Cl)cc4)cc23)c1F` [VEMURAFENIB]: the Kd in assay [1], in assay [2], in assay [3], in assay [4], in assay [5] and in assay [6] was > 30 µM (inactive) in each case. Moreover, the Kd (on Ephrin type-B receptor 3; in assay [7]) was > 30 µM (inactive) each time.

Take `N[C@@H]1CCCN(c2c(/C=C3\SC(=O)NC3=O)cccc2-c2ccccc2)C1`: the Kd in assay [1], in assay [2], in assay [3], in assay [4], in assay [5] and in assay [6] was > 30 µM (inactive) in each case. In addition, the Kd (at Ephrin type-B receptor 3; in assay [7]) was > 30 µM (inactive) each time.

Consider `O=C(O)[C@]1(Cc2cccc(Nc3nccs3)n2)CC[C@@H](Oc2cccc(Cl)c2F)CC1` [MK-5108], for which the Kd in assay [1], in assay [2], in assay [3], in assay [4], in assay [5] and in assay [6] was > 30 µM (inactive) throughout. Moreover, the Kd (on Ephrin type-B receptor 3; in assay [7]) was > 30 µM (inactive) throughout.

For the compound `COc1cc(OC)c(/C=C/S(=O)(=O)Cc2ccc(OC)c(NCC(=O)O)c2)c(OC)c1` [RIGOSERTIB], the Kd in assay [1], in assay [2], in assay [3], in assay [4], in assay [5] and in assay [6] was > 30 µM (inactive) throughout. For the same compound, the Kd (on Ephrin type-B receptor 3; in assay [7]) was > 30 µM (inactive) throughout.

For the compound `Cc1cc(-c2cc(O)ccc2Cl)cc2nnc(Nc3ccc(OCCN4CCCC4)cc3)nc12`, the Kd in assay [1], in assay [2], in assay [3], in assay [4], in assay [5] and in assay [6] was > 30 µM (inactive) in each case. In addition, the Kd at Ephrin type-B receptor 3 was 0.002 µM (active); in assay [7], > 30 µM (inactive).

As to `CCn1c(=O)c(-c2cc[nH]n2)cc2c(C)nc(N)nc21` [VOXTALISIB], the Kd in assay [1], in assay [2], in assay [3], in assay [4], in assay [5] and in assay [6] was > 30 µM (inactive) throughout. Also, the Kd (at Ephrin type-B receptor 3; in assay [7]) was > 30 µM (inactive) throughout.

As for `Cn1ncc(Cl)c1-c1cc(C(=O)N[C@H](CN)Cc2cccc(F)c2)sc1Cl` [AFURESERTIB], the Kd in assay [1], in assay [2], in assay [3], in assay [4], in assay [5] and in assay [6] was > 30 µM (inactive) throughout. Also, the Kd (at Ephrin type-B receptor 3; in assay [7]) was > 30 µM (inactive) in each case.

On to `Cc1cc2c(F)c(Oc3ncnn4cc(OC[C@@H](C)OC(=O)[C@H](C)N)c(C)c34)ccc2[nH]1` [BRIVANIB ALANINATE], for which the Kd was 46.2 µM (active) in assay [1]; > 30 µM (inactive) in assay [2]; > 30 µM (inactive) in assay [3]; > 30 µM (inactive) in assay [4]; > 30 µM (inactive) in assay [5]; > 30 µM (inactive) in assay [6]. Moreover, the Kd (at Ephrin type-B receptor 3; in assay [7]) was > 30 µM (inactive) each time.

Consider `CN1CCC(CNc2ccc3ncc(-c4cccc(OC(F)(F)F)c4)n3n2)CC1` [SGI-1776], for which the Kd in assay [1], in assay [2], in assay [3], in assay [4], in assay [5] and in assay [6] was > 30 µM (inactive) throughout. The Kd (on Ephrin type-B receptor 3; in assay [7]) was > 30 µM (inactive) each time.

In the case of `COC(=O)N[C@@H](C)CNc1nccc(-c2cn(C(C)C)nc2-c2cc(Cl)cc(NS(C)(=O)=O)c2F)n1` [ENCORAFENIB], the Kd in assay [1], in assay [2], in assay [3], in assay [4], in assay [5] and in assay [6] was > 30 µM (inactive) in each case. Further, the Kd (on Ephrin type-B receptor 3; in assay [7]) was > 30 µM (inactive) each time.

`O=c1sn(-c2cccc3ccccc23)c(=O)n1Cc1ccccc1` [TIDEGLUSIB]: the Kd in assay [1], in assay [2], in assay [3], in assay [4], in assay [5] and in assay [6] was > 30 µM (inactive) in each case. Also, the Kd (on Ephrin type-B receptor 3; in assay [7]) was > 30 µM (inactive) throughout.

For `COC(=O)[C@@]1(O)C[C@H]2O[C@]1(C)n1c3ccccc3c3c4c(c5c6ccccc6n2c5c31)C(=O)NC4` [K-252A], the Kd in assay [1] was 0.019 µM (active); in assay [2] it was > 30 µM (inactive); in assay [3], 0.021 µM (active); in assay [4], 0.067 µM (active); in assay [5], > 30 µM (inactive); in assay [6], > 30 µM (inactive). In addition, the Kd on Ephrin type-B receptor 3 is > 30 µM (inactive); in assay [7], 0.019 µM (active).
